In a flash point compilation (Sun et al. 2020):
Counter-ions that a name gives are not always drawn.

With `CCC=CCC1=C(C)CCC1=O` [3-methyl-2-pent-2-enylcyclopent-2-en-1-one] as the compound, how does the flash point read?
The flash point was 107.00 °C.

With `CCCC=O` [butanal] as the compound, how does the flash point read?
Its flash point is -7.00 °C.

For `Ic1ccccc1` [iodobenzene], which flash point is on record?
Its flash point is 77.00 °C.

Which flash point does the source give for `CCC` [propane] here?
The flash point was -104.00 °C.

With `O=c1oc2ccccc2c(O)c1C(CC(O)c1ccc(-c2ccc(Br)cc2)cc1)c1ccccc1` (stereo unspecified) as the compound, how does the flash point read?
The flash point was 218.00 °C.

For `CC(Cl)CCl.ClC=CCCl` (stereo unspecified) [1,2-dichloropropane;(E)-1,3-dichloroprop-1-ene], which flash point is on record?
The flash point was 17.00 °C.

Which flash point does the source give for `CC(C)(C)c1cc(O)ccc1O` [2-tert-butylbenzene-1,4-diol] here?
Its flash point is 171.00 °C.

For `ClCCCBr` [1-bromo-3-chloropropane], which flash point is on record?
The flash point was 57.00 °C.

Which flash point does the source give for `Cc1cc(C)cc(N)c1.Cc1ccc(C)c(N)c1.Cc1ccc(N)c(C)c1.Cc1ccc(N)cc1C.Cc1cccc(C)c1N.Cc1cccc(N)c1C` here?
Its flash point is 97.00 °C.

For `CCCCOCCOCCOCCOCCO` [2-[2-[2-(2-butoxyethoxy)ethoxy]ethoxy]ethanol], which flash point is on record?
Its flash point is 166.00 °C.

For `CN(C)N=O` [N,N-dimethylnitrous amide], which flash point is on record?
Its flash point is 61.00 °C.

For `Clc1cc(Cl)c(Cl)cc1Cl` [1,2,4,5-tetrachlorobenzene], which flash point is on record?
Its flash point is 155.00 °C.

For `CC1(O)CCCCC1` [1-methylcyclohexan-1-ol], which flash point is on record?
The flash point was 67.00 °C.

For `Nc1ccccc1N` [benzene-1,2-diamine], which flash point is on record?
The flash point was 156.00 °C.

For `CC(CCN(C)C)N(C)C` (stereo unspecified) [1-N,1-N,3-N,3-N-tetramethylbutane-1,3-diamine], which flash point is on record?
Its flash point is 46.00 °C.

With `CCCCOCCOC(C)=O` [2-butoxyethyl acetate] as the compound, how does the flash point read?
Its flash point is 71.00 °C.

Which flash point does the source give for `C=CC(=O)OCCCO` [3-hydroxypropyl prop-2-enoate] here?
The flash point was 97.00 °C.

For `CC(C)Cl` [2-chloropropane], which flash point is on record?
The flash point was -32.00 °C.

Which flash point does the source give for `CC(Cl)Cl` [1,1-dichloroethane] here?
Its flash point is -6.00 °C.

Which flash point does the source give for `CCSCC` [ethylsulfanylethane] here?
Its flash point is -10.00 °C.

Which flash point does the source give for `CC(=O)CCC(C)C` [5-methylhexan-2-one] here?
The flash point was 36.00 °C.

Which flash point does the source give for `Cc1cc(C)cc(O)c1` [3,5-dimethylphenol] here?
Its flash point is 80.00 °C.

For `CCCCOC(=O)CCC` [butyl butanoate], which flash point is on record?
Its flash point is 53.00 °C.

With `CC(C)C(=O)O.CC(C)C(O)C(C)(C)CO` (stereo unspecified) [2-methylpropanoic acid;2,2,4-trimethylpentane-1,3-diol] as the compound, how does the flash point read?
Its flash point is 120.00 °C.

With `CCCCCCCCCCCCc1ccccc1O` [2-dodecylphenol] as the compound, how does the flash point read?
The flash point was 163.00 °C.

For `O=C1c2ccccc2C(=O)c2ccccc21` [anthracene-9,10-dione], which flash point is on record?
Its flash point is 185.00 °C.

With `CCOP(=S)(OCC)SCSCC` as the compound, how does the flash point read?
Its flash point is 160.00 °C.

Which flash point does the source give for `CCCOCCC` [1-propoxypropane] here?
The flash point was 21.00 °C.

Which flash point does the source give for `N#CCCCl` [3-chloropropanenitrile] here?
Its flash point is 76.00 °C.

With `C=CCCl` [3-chloroprop-1-ene] as the compound, how does the flash point read?
The flash point was -32.00 °C.

Which flash point does the source give for `CC(C)=CCCC(C)CC=O` (stereo unspecified) [3,7-dimethyloct-6-enal] here?
Its flash point is 74.00 °C.

Which flash point does the source give for `CC1CCC(CO)CC1` (stereo unspecified) [(4-methylcyclohexyl)methanol] here?
The flash point was 112.00 °C.

With `Cc1ccc(N)cc1[N+](=O)[O-]` [4-methyl-3-nitroaniline] as the compound, how does the flash point read?
Its flash point is 157.00 °C.

With `CC1CCC(O)CC1` (stereo unspecified) [4-methylcyclohexan-1-ol] as the compound, how does the flash point read?
Its flash point is 70.00 °C.

With `CN(C)C(=O)/N=N/C(=O)N(C)C` [(3E)-3-(dimethylcarbamoylimino)-1,1-dimethylurea] as the compound, how does the flash point read?
Its flash point is 40.00 °C.

Which flash point does the source give for `O=C(O)CCCCC(=O)O` [hexanedioic acid] here?
The flash point was 191.00 °C.

Which flash point does the source give for `CCc1ccccc1O` [2-ethylphenol] here?
Its flash point is 78.00 °C.

With `Nc1ccccc1O` [2-aminophenol] as the compound, how does the flash point read?
The flash point was 168.00 °C.

With `C=CC1CO1` (stereo unspecified) [2-ethenyloxirane] as the compound, how does the flash point read?
The flash point was -46.00 °C.

With `O=[N+]([O-])N(Cl)c1ccccc1` [N-chloro-N-phenylnitramide] as the compound, how does the flash point read?
Its flash point is 205.00 °C.

With `Cc1ccc2oc(=O)ccc2c1` [6-methylchromen-2-one] as the compound, how does the flash point read?
The flash point was 130.00 °C.

For `C=Cc1ccc(C)cc1` [1-ethenyl-4-methylbenzene], which flash point is on record?
Its flash point is 52.00 °C.

Which flash point does the source give for `CCCCCC(C)=O` [heptan-2-one] here?
Its flash point is 39.00 °C.

With `CCCCCCCCCCCS` [undecane-1-thiol] as the compound, how does the flash point read?
The flash point was 109.00 °C.

Which flash point does the source give for `CC(=O)C=C(C)C` [4-methylpent-3-en-2-one] here?
The flash point was 23.00 °C.

With `OCC#CCO` [but-2-yne-1,4-diol] as the compound, how does the flash point read?
The flash point was 128.00 °C.

For `CN(C)CCOCCN(C)C` [2-[2-(dimethylamino)ethoxy]-N,N-dimethylethanamine], which flash point is on record?
The flash point was 79.00 °C.

With `O=C1c2ccccc2C(=O)N1SC1CCCCC1` [2-cyclohexylsulfanylisoindole-1,3-dione] as the compound, how does the flash point read?
The flash point was 177.00 °C.

Which flash point does the source give for `Cc1ccccc1CBr` [1-(bromomethyl)-2-methylbenzene] here?
The flash point was 82.00 °C.

Which flash point does the source give for `OCc1ccco1` [furan-2-ylmethanol] here?
The flash point was 75.00 °C.

Which flash point does the source give for `c1ccc(Cc2ccccc2)cc1` [benzylbenzene] here?
The flash point was 130.00 °C.

With `CCSC(=O)N1CCCCCC1` [S-ethyl azepane-1-carbothioate] as the compound, how does the flash point read?
Its flash point is 139.00 °C.

Which flash point does the source give for `O=C1CCCc2ccccc21` [3,4-dihydro-2H-naphthalen-1-one] here?
The flash point was 129.00 °C.

With `OCC(Cl)Cl` [2,2-dichloroethanol] as the compound, how does the flash point read?
Its flash point is 78.00 °C.

For `CCC[CH2][Sn]([Cl])([Cl])[Cl]` [butyl(trichloro)stannane], which flash point is on record?
Its flash point is 81.00 °C.

For `CCCCCCCOC(=O)c1ccccc1C(=O)OCCCCCCC` [diheptyl benzene-1,2-dicarboxylate], which flash point is on record?
The flash point was 224.00 °C.

With `O=C1CCCCCN1` [azepan-2-one] as the compound, how does the flash point read?
Its flash point is 125.00 °C.

With `Oc1ccccc1` [phenol] as the compound, how does the flash point read?
The flash point was 79.00 °C.

With `CC(Cl)CCl` (stereo unspecified) [1,2-dichloropropane] as the compound, how does the flash point read?
The flash point was 16.00 °C.

With `CCCCCCCC(C)=O` [nonan-2-one] as the compound, how does the flash point read?
The flash point was 64.00 °C.

With `C1COC1` [oxetane] as the compound, how does the flash point read?
The flash point was -28.00 °C.

For `C=C(Cl)Cl` [1,1-dichloroethene], which flash point is on record?
Its flash point is -10.00 °C.

With `O=C1CCCCCO1` [oxepan-2-one] as the compound, how does the flash point read?
Its flash point is 127.00 °C.

With `CC(Br)c1ccccc1` (stereo unspecified) [1-bromoethylbenzene] as the compound, how does the flash point read?
The flash point was 96.00 °C.

For `CCC[CH2][Sn]([CH2]CCC)([O]C(C)=O)[O]C(C)=O` [[acetyloxy(dibutyl)stannyl] acetate], which flash point is on record?
Its flash point is 143.00 °C.

For `CCOP(=O)(OCC)SCCSCC.CCOP(=S)(OCC)OCCSCC`, which flash point is on record?
Its flash point is 45.00 °C.

With `O=C=Nc1ccc(Cc2ccc(N=C=O)cc2)cc1` [1-isocyanato-4-[(4-isocyanatophenyl)methyl]benzene] as the compound, how does the flash point read?
The flash point was 218.00 °C.

Which flash point does the source give for `FC(F)(F)c1ccccc1` [trifluoromethylbenzene] here?
Its flash point is 12.00 °C.

Which flash point does the source give for `CCOC(=O)C(=O)OCC` [diethyl oxalate] here?
Its flash point is 76.00 °C.

For `CCCCCCCCCCCC(=O)O` [dodecanoic acid], which flash point is on record?
Its flash point is 113.00 °C.

For `COCCOC(=O)c1ccccc1C(=O)OCCOC` [bis(2-methoxyethyl) benzene-1,2-dicarboxylate], which flash point is on record?
Its flash point is 210.00 °C.

With `CCOC(C)(C)C` [2-ethoxy-2-methylpropane] as the compound, how does the flash point read?
The flash point was -19.00 °C.

For `CC(C)=CCC1CCCC1=O` (stereo unspecified) [2-(3-methylbut-2-enyl)cyclopentan-1-one], which flash point is on record?
The flash point was 23.00 °C.

For `CC(C)c1ccccc1O` [2-propan-2-ylphenol], which flash point is on record?
The flash point was 104.00 °C.

With `CC(O)c1ccccc1` (stereo unspecified) [1-phenylethanol] as the compound, how does the flash point read?
The flash point was 85.00 °C.

For `NCCO` [2-aminoethanol], which flash point is on record?
Its flash point is 93.00 °C.

With `CCCCCCCCCC(C)=O` [undecan-2-one] as the compound, how does the flash point read?
The flash point was 89.00 °C.

With `CCCCCCCCCCCCCCCCCC(=O)O` [octadecanoic acid] as the compound, how does the flash point read?
Its flash point is 196.00 °C.

For `Cc1ccc(C)o1` [2,5-dimethylfuran], which flash point is on record?
Its flash point is -1.00 °C.

Which flash point does the source give for `CC(C)OCC1CO1` (stereo unspecified) [2-(propan-2-yloxymethyl)oxirane] here?
Its flash point is 33.00 °C.

Which flash point does the source give for `Fc1ccc(Br)cc1` [1-bromo-4-fluorobenzene] here?
Its flash point is 60.00 °C.

With `Nc1ccccc1Cl` [2-chloroaniline] as the compound, how does the flash point read?
The flash point was 98.00 °C.

Which flash point does the source give for `O=[N+]([O-])c1ccc(Cl)c([N+](=O)[O-])c1` [1-chloro-2,4-dinitrobenzene] here?
Its flash point is 194.00 °C.

With `O=C(O)/C=C/C(=O)O` [(E)-but-2-enedioic acid] as the compound, how does the flash point read?
The flash point was 273.00 °C.

Which flash point does the source give for `O=Cc1ccc(Cl)cc1Cl` [2,4-dichlorobenzaldehyde] here?
Its flash point is 135.00 °C.

With `Nc1cccc(N)c1` [benzene-1,3-diamine] as the compound, how does the flash point read?
The flash point was 138.00 °C.

Which flash point does the source give for `CCCCOCC` [1-ethoxybutane] here?
The flash point was 4.00 °C.

Which flash point does the source give for `CC(C)(C)c1ccccc1OP(=O)(Oc1ccccc1)Oc1ccccc1` [(2-tert-butylphenyl) diphenyl phosphate] here?
Its flash point is 224.00 °C.

Which flash point does the source give for `CC(C)N(C(=O)SCC(Cl)=C(Cl)Cl)C(C)C` here?
Its flash point is 90.00 °C.

For `C=CC(=O)OCCOC` [2-methoxyethyl prop-2-enoate], which flash point is on record?
The flash point was 82.00 °C.

With `Nc1cccc(C(F)(F)F)c1` [3-(trifluoromethyl)aniline] as the compound, how does the flash point read?
The flash point was 85.00 °C.

Which flash point does the source give for `Oc1cc(O)c2cc(O)c(-c3cc(O)c(O)c(O)c3)[o+]c2c1.[Cl-]` [2-(3,4,5-trihydroxyphenyl)chromenylium-3,5,7-triol;chloride] here?
The flash point was 193.00 °C.

With `Nc1cc(Cl)ccc1Cl` [2,5-dichloroaniline] as the compound, how does the flash point read?
Its flash point is 113.00 °C.

With `CCCCC(CC)COC(C)=O` (stereo unspecified) [2-ethylhexyl acetate] as the compound, how does the flash point read?
The flash point was 88.00 °C.

For `CC(C)C=O` [2-methylpropanal], which flash point is on record?
Its flash point is -40.00 °C.

With `CCOCCOCCOCCO` [2-[2-(2-ethoxyethoxy)ethoxy]ethanol] as the compound, how does the flash point read?
The flash point was 135.00 °C.

With `CC(C)(C)OCC1CO1` (stereo unspecified) [2-[(2-methylpropan-2-yl)oxymethyl]oxirane] as the compound, how does the flash point read?
Its flash point is 43.00 °C.

For `CCOC(=O)c1ccccc1C(=O)OCC` [diethyl benzene-1,2-dicarboxylate], which flash point is on record?
The flash point was 140.00 °C.

For `Clc1ccccc1Cl` [1,2-dichlorobenzene], which flash point is on record?
Its flash point is 66.00 °C.

Which flash point does the source give for `O=C=Nc1ccc2ccccc2c1N=C=O` [1,2-diisocyanatonaphthalene] here?
The flash point was 192.00 °C.

For `C=C(C#N)C(=O)OCC` [ethyl 2-cyanoprop-2-enoate], which flash point is on record?
Its flash point is 82.00 °C.
